Source: patent EP4755892A1, “KINESIN KIF18A INHIBITOR AND USE THEREOF” (Shanghai Apeiron Therapeutics Company Limited, priority 2023, dated 2025)
Read-outs that look alike come from different tables or passages of the source.

Key:
[1] = test system: HT29 cells; assay: CyQuant Cell Proliferation Activity Test, HT29; format: cell-based; conditions: HT29 cells 2000 per well, initial concentration 3000 nM, 3-fold dilution, 3 days, 0.2% DMSO, read-out: HT29_IC50 _nM
Description: Assay 3: CyQuant Cell Proliferation Activity Test
Materials and Cells: HT29 cells were purchased from Nanjing Cobioer Biosciences Co., Ltd.; RPMI-1640 medium, fetal bovine serum, Trypsin-EDTA (0.25%), 96-well plates, and CyQuant reagents were purchased from ThermoFisher (USA); DMSO was purchased from SIGMA (USA).
Cell Culture: HT29 cells were cultured with RPMI-1640 containing 10% fetal bovine serum under the condition of 37°C and 5% CO2. Only cells in the logarithmic growth phase could be used for the test.
Cell Proliferation Activity Test: CyQuant reagent was used to detect the proliferation inhibitory activity of compounds on HT29 cells. The cell density was adjusted, and 100 µL per well was inoculated into a 96-well plate (HT29 at 2000 cells per well), then incubated overnight at 37°C and 5% CO2. Add compounds of various target concentrations (initial concentration of 3000 nM, 3-fold dilution, 9 concentration gradients), and make the DMSO content 0.2%. The cell plate was incubated at 37°C in 5% CO2 for 3 days. CyQuant reagent was added and incubated for 1 h. The plates were read by Envision, and IC50 was calculated using XLFIT.

[2] = biological target: T1, Human KIF18A (amino acid sequence 1-417) (Homo sapiens, UniProt Q8NI77); assay: Enzymatic Activity Test (ADP-Glo, microtubule-stimulated KIF18A ATPase); format: biochemical; conditions: 60 µg/mL microtubules, 25 µM ATP, 2.5 nM KIF18A protein, 120 min at ambient temperature, chemiluminescence; read-out: KIF 18A IC50
T1 construct: purchased Viva Biotech (Shanghai) Ltd
T1 sequence (Q8NI77 1-417): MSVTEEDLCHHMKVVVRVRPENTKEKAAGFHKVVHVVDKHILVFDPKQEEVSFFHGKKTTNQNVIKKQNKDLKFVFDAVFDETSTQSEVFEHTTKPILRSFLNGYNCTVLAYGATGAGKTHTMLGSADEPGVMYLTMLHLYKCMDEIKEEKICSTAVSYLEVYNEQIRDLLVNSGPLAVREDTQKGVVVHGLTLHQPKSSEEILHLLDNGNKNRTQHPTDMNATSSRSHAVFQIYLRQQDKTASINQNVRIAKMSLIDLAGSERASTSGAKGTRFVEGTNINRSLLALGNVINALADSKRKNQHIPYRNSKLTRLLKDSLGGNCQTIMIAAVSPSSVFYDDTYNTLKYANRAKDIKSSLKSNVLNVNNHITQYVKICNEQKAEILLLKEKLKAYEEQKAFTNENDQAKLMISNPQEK
Description: Assay 1: Enzymatic Activity Test
Materials: Human KIF18A (amino acid sequence 1-417) was purchased from Viva Biotech (Shanghai) Ltd.; the ADP-Glo™ protein kinase kit was acquired from Promega, USA; tubulin was sourced from Cytoskeleton, USA; and the 384-well assay plate and Envision multifunctional microplate reader were obtained from PerkinElmer, USA.
Enzymatic Activity Test: The compound powder was dissolved in DMSO to prepare a stock solution of 10 mM. Then gradient dilution was performed for the compounds in the microplate to achieve a final concentration of 0-10 µM. Then, 2.5 µL each of tubulin, compound, ATP, and KIF18A protein were added to the microplate in sequence for reaction at ambient temperature for 120 min. The final concentrations in the enzyme reaction were 60 µg/mL for microtubules, 25 µM for ATP, and 2.5 nM for KIF18A protein. After the enzyme reaction, 10 µL of ADP-GLO reaction reagent was added to each well and incubated at room temperature for 30 min. After that, 20 µL of detection reagent was added to each well and incubated at room temperature for 30 min in the dark. Finally, chemiluminescence detection was performed using the PerkinElmer Envision.

[3] = test system: OVCAR3 cells; assay: Cell Proliferation Activity Test (CyQUANT Direct), OVCAR3; format: cell-based; conditions: compound 0-10 µM, 3 days, 0.2% DMSO, CyQUANT fluorescence, read-out: OVCAR-3 _IC50_nM
Description: Assay 2: Cell Proliferation Activity Test
Materials and Cells: OVCAR3 cells were purchased from Nanjing Cobioer Biosciences Co., Ltd. RPMI-1640 medium, fetal bovine serum, and the CyQUANT Direct Cell Proliferation Assay kit were purchased from Thermo Fisher Scientific, USA; 96-well cell culture plates were sourced from Coming, USA.
Cell Culture: OVCAR3 cells were cultured with RPMI-1640 medium containing 10% fetal bovine serum and incubated in a 5% CO2 incubator at 37°C. Only cells in the logarithmic growth phase could be used for the test.
Cell Proliferation Activity Test:
OVCAR3 cells were inoculated into a 96-well cell culture plate at 90 µL per well and incubated overnight in a 5% CO2 incubator at 37°C. The compound powder was dissolved in DMSO to prepare a stock solution of 10 mM. Then gradient dilution was performed for the compounds in the microplate to achieve a final concentration of 0-10 µM. 10 µL of cell culture medium containing compounds was added to each well to make the final DMSO content 0.2%. The cell plates were incubated in a 5% CO2 incubator at 37°C for 3 days. 100 µL of CyQUANT detection reagent was added to each well, reacted at 37°C for 60 min, and fluorescence detection was performed using the PerkinElmer Envision.

IC50 [1] [nM]	IC50 [2] [nM]	IC50 [3] [nM]	IC50 ([1]; Homo sapiens, HT-29, 72 h) [nM]	IC50 ([3]; Homo sapiens, OVCAR-3, 72 h) [nM]	Structure (SMILES)
660	345	458	–	–	Cc1cc2nc(n1)N1CCC(F)(F)C(C=CCC3CCN(CC3)c3cc(NS(=O)(=O)CCO)ccc3C(=O)N2)C1 (stereo not drawn) [Example 18D, N-((1^3R,Z)-1^4,1^4-difluoro-2^6-methyl-4-oxo-3-aza-2(2,4)-pyrimidin-1(1,3),6(1,4)-dipiperidin-5(1,2)-benzeneheterocyclononane-8-en-5^4-yl)-2-hydroxyethane-1-sulfon amide]
–	13	–	10.9	8.5	Cc1cc2nc(n1)N1CCOC(C=CCC3CCN(CC3)c3cc(NS(=O)(=O)CCO)ccc3C(=O)N2)C1 (stereo not drawn) [Example 25, 2-Hydroxy-N-((1^2S)-2^6-methyl-4-oxo-3-aza-1(4,2)-morpholin-2(2,4)-pyrimidin-6(1,4)-piperidin-5(1,2)-benzeneheterocyclonon-8-en-5^4-yl)ethane-1-sulfonamide]
7	34	6	–	–	Cc1cc2nc(n1)N1CCCC(C=CCC3CCN(CC3)c3cc(NS(=O)(=O)CCO)ccc3C(=O)N2)C1 (stereo not drawn) [Example 1B, 2-Hydroxy-N-((1^3R,E)-2^6-methyl-4-oxo-3-aza-2(2,4)-pyrimidin-1(1,3),6(1,4)-dipiperidin-5(1,2)-benzoaza-8-en-5^4-yl)ethane-1-sulfonamide]
34	94	31	–	–	Cc1cc2nc(n1)N1CCC(F)(F)C(C=CCC3CCN(CC3)c3cc(NS(=O)(=O)CCO)ccc3C(=O)N2)C1 (stereo not drawn) [Example 18, N-(1^4,1^4-difluoro-2^6-methyl-4-oxo-3-aza-2(2,4)-pyrimidin-1(1,3),6(1,4)-dipiperidin-5(1,2)-benzeneheterocyclonon-8-en-5^4-yl)-2-hydroxyethane-1-sulfonamide]
–	605	–	> 3000	> 3000	O=C1Nc2cccc(c2)S(=O)(=O)N2CCN(CCC3CCN(CC3)c3cc(NS(=O)(=O)CCO)ccc31)CC2 [Example 17, N-(6,6-dioxo-9-oxo-6-thia-8-aza-5(1,4)-piperazin-2(1,4)-piperidin-1(1,2),7(1,3)-diphenylheterocyclononane-1^3-yl)-2-hydroxyethane-1-sulfonamide]
–	28	–	251	124	O=C1Nc2cccc(c2)S(=O)(=O)NCC=CCCC2CCN(CC2)c2cc(NS(=O)(=O)CCO)ccc21 [Example 12, N-(6,6-dioxo-3-oxo-6-thia-4,7-diaza-1(1,4)-piperidin-2(1,2),5(1,3)-diphenylheterocyclododec-9-ene-2^5-yl)-2-hydroxy-1-ethanesulfonamide]
–	305	–	703	744	Cc1cc2nc(n1)N1CCC(F)(F)C(=CCCC3CCN(CC3)c3cc(NS(=O)(=O)CCO)ccc3C(=O)N2)C1 [Example 21, N-(1^4,1^4-difluoro-2^6-methyl-4-oxo-3-aza-2(2,4)-pyrimidin-1(1,3),6(1,4)-dipiperidin-5(1,2)-benzeneheterocyclonon-9-en-5^4-yl)-2-hydroxyethane-1-sulfonamide]
32	71.5	28	–	–	Cc1cc2nc(n1)N1CCC(F)(F)C(CCCC3CCN(CC3)c3cc(NS(=O)(=O)CCO)ccc3C(=O)N2)C1 (stereo not drawn) [Example 23B, N-((1^3R)-1^4,1^4-difluoro-2^6-methyl-4-oxo-3-aza-2(2,4)-pyrimidin-1(1,3),6(1,4)-dipiperidin-5(1,2)-benzeneheterocyclononane-5^4-yl)-2-hydroxyethane-1-sulfonamide]
–	229	–	639	506	Cc1cc2nc(n1)N1CCCC(COCC3CCN(CC3)c3cc(NS(=O)(=O)CCO)ccc3C(=O)N2)C1 (stereo not drawn) [Example 28, 2-Hydroxy-N-(2^6-methyl-4-oxo-8-oxa-3-aza-2(2,4)-pyrimidin-1(1,3),6(1,4)-dipiperidin-5(1,2)-benzeneheterocyclononane-5^4-yl)ethane-1-sulfonamide]
43	67	36	–	–	Cc1cc2nc(n1)N1CCCC(CCCC3CCN(CC3)c3cc(NS(=O)(=O)CCO)ccc3C(=O)N2)C1 (stereo not drawn) [Example 3B, 2-Hydroxy-N-((1^3S)-2^6-methyl-4-oxo-3-aza-2(2,4)-pyrimidin-1(1,3),6(1,4)-dipiperidin-5(1,2)-benzeneheterocyclononane-5^4-yl)ethane-1-sulfonamide]
–	21	–	152	85	O=C1Nc2cccc(c2)S(=O)(=O)NCCCCC2CCN(CC2)c2cc(NS(=O)(=O)CCO)ccc21 [Example 14, N-(6,6-dioxo-3-oxo-6-thia-1(1,4)-piperidin-2(1,2),5(1,3)-diphenylheterocycloundecane-2^5-yl)-2-hydroxy-1-ethanesulfonamide]
17	62	14	–	–	Cc1cc2nc(n1)N1CCCC(C=CCC3CCN(CC3)c3cc(NS(=O)(=O)CCO)ccc3C(=O)N2)C1 (stereo not drawn) [Example 1, 2-Hydroxy-N-(2^6-methyl-4-oxo-3-aza-2(2,4)-pyrimidin-1(1,3),6(1,4)-dipiperidin-5 (1,2)-benzeneheterocyclonon-8-en-5^4-yl)ethane-1-sulfonamide]
1320	26	1610	–	–	Cc1cc2nc(n1)N1CCCC(CCCC3CCN(CC3)c3cc(NS(=O)(=O)CCO)ccc3C(=O)N2)C1 (stereo not drawn) [Example 3A, 2-Hydroxy-N-((1^3R)-2^6-methyl-4-oxo-3-aza-2(2,4)-pyrimidin-1(1,3),6(1,4)-dipiperidin-5(1,2)-benzeneheterocyclononane-5^4-yl)ethane-1-sulfonamide]
688	522	662	–	–	Cc1cc2nc(n1)N1CCC(F)(F)C(CCCC3CCN(CC3)c3cc(NS(=O)(=O)CCO)ccc3C(=O)N2)C1 (stereo not drawn) [Example 23A, N-((1^3S)-1^4,1^4-difluoro-2^6-methyl-4-oxo-3-aza-2(2,4)-pyrimidin-1(1,3),6(1,4)-dipiperidin-5(1,2)-benzeneheterocyclononane-5^4-yl)-2-hydroxyethane-1-sulfonamide]
47	102	52	–	–	Cc1cc2nc(n1)N1CCC(F)(F)C(CCCC3CCN(CC3)c3cc(NS(=O)(=O)CCO)ccc3C(=O)N2)C1 (stereo not drawn) [Example 23, N-(1^4,1^4-difluoro-2^6-methyl-4-oxo-3-aza-2(2,4)-pyrimidin-1(1,3),6(1,4)-dipiperidin-5(1,2)-benzeneheterocyclononane-5^4-yl)-2-hydroxyethane-1-sulfonamide]
